Experimental data: PubChem BioAssay (NCI)
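A five-concentration, 48-hour dose response in 96-well plates underlies each endpoint, interpolated linearly between surrounding concentrations. TGI denotes the concentration required for complete inhibition of growth.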

Columns and labels:
Experiment in all cases: NCI anticancer screen, dose series, 48 h
[1] = tested on: DU-145 prostate
[2] = tested on: HT29 colon
[3] = tested on: OVCAR-5 ovarian
[4] = tested on: OVCAR-4 ovarian
[5] = tested on: K-562 leukemia
[6] = tested on: A549 NSCLC
[7] = tested on: HCT-116 colon
[8] = tested on: BT-549 breast
[9] = tested on: SF-295 CNS
[10] = tested on: RPMI-8226 leukemia
[11] = tested on: HCC-2998 colon

SMILES	TGI [1] [µM]	TGI [2] [µM]	TGI [3] [µM]	TGI [4] [µM]	TGI [5] [µM]	TGI [6] [µM]	TGI [7] [µM]	TGI [8] [µM]	TGI [9] [µM]	TGI [10] [µM]	TGI [11] [µM]
CCOC(=O)c1cnc2[nH]ccn2c1=O	> 10	> 10	> 10	> 10	> 10	> 10	> 10	> 10	> 10	> 10	–
N#Cc1c(OCCF)c2ccccc2n2c1nc1ccccc12	> 100	> 100	> 100	92	> 100	> 100	> 100	–	> 100	> 100	> 100
O=C1OC[C@@H]2Cc3c([nH]c4ccccc34)[C@@H](c3ccc(O)cc3)N12	> 100	98.4	> 100	> 86.4	> 75.2	75.8	35	–	> 83.4	> 80.9	> 96.7
O=C1C(C=NCCc2c[nH]c3ccccc23)C(C(F)(F)F)=NN1c1nc2ccccc2s1 (stereo unspecified)	79.5	88	78.8	63	> 100	> 100	> 100	66.3	66.5	62.5	–
C=CCCCC12CCCc3cccc(c31)NC2=O (stereo unspecified)	–	–	43.5	39.8	78.3	51.2	26.4	–	> 100	47.3	30.8
O=C1C(Cl)N(c2ccccc2)C1c1c[nH]c2ccccc12 (stereo unspecified)	–	> 100	> 100	> 100	> 100	> 100	> 100	–	> 100	> 100	–
O=C(OCc1ccccc1)OOC(=O)OCc1ccccc1	–	> 100	> 100	> 100	> 100	> 100	> 100	–	> 100	> 100	> 100
CO/N=C1/c2sccc2[C@H](NC(=O)CNC(=O)OC(C)(C)C)[C@@H]1O	> 100	> 100	> 100	> 100	> 100	> 100	> 100	> 100	> 100	–	> 100
CC(C)CCNC(=O)c1ccc(CNC(=O)/C=C/c2ccc(OCc3ccccc3)cc2)cc1	> 100	> 100	> 100	> 100	> 100	> 100	> 100	–	> 100	> 100	> 100
O=C(CCc1ccc(O)cc1)c1c(O)cc(O)cc1OC1OC(CO)C(O)C(O)C1O (stereo unspecified)	> 100	> 100	> 100	> 100	> 100	> 100	> 100	–	> 100	–	> 100
CN1CN(c2ccccc2)C2(CCN(CCCC3(c4cccs4)OCCO3)CC2)C1=O	> 100	> 100	> 100	> 100	> 100	> 100	> 100	–	> 100	> 100	> 100
CCOc1ccc(N=C/C=C(\Cl)c2ccc3ccccc3c2)cc1	30.7	33.3	36.3	26.3	23.7	> 100	21.6	40.4	36	24.7	–
CC(C)=CC1C(C(=O)O)C1(C)C (stereo unspecified)	–	> 750	> 750	> 750	> 750	> 750	> 750	–	> 750	> 750	> 750
N#CSCc1cccc(Nc2cc(=O)[nH]c(=O)[nH]2)c1	–	> 100	> 100	> 100	> 100	> 100	> 100	> 100	> 100	> 100	> 100
COC(c1ccc(C(C)(C)C)cc1)(c1ccc(C(C)(C)C)cc1)c1cc(C(O)(c2cc(C(OC)(c3ccc(C(C)(C)C)cc3)c3ccc(C(C)(C)C)cc3)c(C)cc2C)c2cc(C(OC)(c3ccc(C(C)(C)C)cc3)c3ccc(C(C)(C)C)cc3)c(C)cc2C)c(C)cc1C	> 100	> 100	> 100	> 100	> 100	> 100	> 100	> 100	> 100	–	> 100
O=C1/C(=C/c2ccc(F)cc2)CNC/C1=C\c1ccc(F)cc1	3.96	7.4	8.99	> 36.8	–	18.1	0.915	3.67	6.19	–	1.74
CCOC(=O)C(=O)N1C(C)=C(C(=O)OCC)CC(C(=O)OCC)=C1C	> 100	–	> 100	> 100	> 100	> 100	> 100	–	> 100	> 100	> 100
NCCCC(N)C(=O)O (stereo unspecified)	> 100	> 100	> 100	> 100	> 100	> 100	> 100	> 100	> 100	> 100	–
O=C(O[C@H](/C=C/c1ccccc1)P1(=O)N(Cc2ccccc2)[C@@H]2CCCC[C@H]2N1Cc1ccccc1)c1ccccc1	–	18.4	> 100	6.19	> 100	> 100	12.1	> 100	> 100	6.39	> 100
Brc1ccc2c3c1[C@@H]1O[C@@H]1c1cccc(c1-3)[C@@H]1O[C@H]21	> 72.5	53.3	34.3	41.3	> 100	> 92.1	45.7	43.2	46	> 100	–
CC(=O)Nc1ccc(Cl)c(Cl)c1	–	> 100	–	–	> 100	> 100	> 100	–	> 100	> 100	> 100
COC1C=CC23c4cc5c(cc4C(O)OC2CN(C)C3C1)OCO5 (stereo unspecified)	–	–	39.9	9.77	14.3	9.49	10.1	–	9.59	8.34	5.71
